The target in data set [1] is T1, porcine kidney alanine aminopeptidase (pAPN, EC 3.4.11.2) (Sus scrofa, UniProt P15145).
T1 construct: porcine kidney alanine aminopeptidase (pAPN, EC 3.4.11.2); purchased Sigma Aldrich (Poznan, Poland); host or cells: porcine kidney (tissue-derived)
T1 sequence (P15145 1-963): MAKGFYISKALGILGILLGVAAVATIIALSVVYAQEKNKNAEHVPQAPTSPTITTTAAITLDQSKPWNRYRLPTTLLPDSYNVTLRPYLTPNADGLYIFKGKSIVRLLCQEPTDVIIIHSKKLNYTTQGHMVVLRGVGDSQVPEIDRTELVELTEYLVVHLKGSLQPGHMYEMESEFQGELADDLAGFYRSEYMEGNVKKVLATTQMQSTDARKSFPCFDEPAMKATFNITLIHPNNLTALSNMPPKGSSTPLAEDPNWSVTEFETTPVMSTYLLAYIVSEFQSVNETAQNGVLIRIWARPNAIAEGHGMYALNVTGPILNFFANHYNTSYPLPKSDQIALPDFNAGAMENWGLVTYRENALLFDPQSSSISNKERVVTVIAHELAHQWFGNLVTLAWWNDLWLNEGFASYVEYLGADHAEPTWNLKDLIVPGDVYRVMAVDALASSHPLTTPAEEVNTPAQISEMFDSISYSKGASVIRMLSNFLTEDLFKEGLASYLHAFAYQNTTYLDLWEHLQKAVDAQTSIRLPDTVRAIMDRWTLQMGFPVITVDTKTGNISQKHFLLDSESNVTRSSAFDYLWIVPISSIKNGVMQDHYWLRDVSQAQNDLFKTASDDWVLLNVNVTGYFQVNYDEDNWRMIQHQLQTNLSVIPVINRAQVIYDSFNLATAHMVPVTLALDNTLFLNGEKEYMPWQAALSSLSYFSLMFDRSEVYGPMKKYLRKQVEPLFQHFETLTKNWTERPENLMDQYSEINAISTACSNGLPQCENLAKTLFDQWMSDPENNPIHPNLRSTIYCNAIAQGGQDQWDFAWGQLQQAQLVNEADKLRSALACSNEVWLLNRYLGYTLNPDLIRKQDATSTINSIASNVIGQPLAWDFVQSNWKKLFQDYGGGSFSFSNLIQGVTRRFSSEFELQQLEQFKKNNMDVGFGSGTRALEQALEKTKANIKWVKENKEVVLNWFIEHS
The experiment in a line: Fluorogenic (Ala-AMC) enzyme inhibition assay, pAPN. Type of data set: biochemical. As to conditions: for Ki: racemic compounds, substrate Ala-AMC 100 µM, 50 mM Tris-HCl pH 7.20, 37 °C.

The target in data set [2] is T2, Recombinant human alanine aminopeptidase (hAPN, EC 3.4.11.2) (Homo sapiens, UniProt P15144).
T2 construct: purchased R&D System (Minneapolis, MN)
Put plainly: Fluorogenic (Ala-AMC) enzyme inhibition assay, hAPN. Particulars: for Ki: racemic compounds, substrate Ala-AMC 50 µM, 50 mM Tris-HCl pH 7.00, 37 °C. Type of data set: biochemical.

Data set [3] addresses T2, Recombinant human alanine aminopeptidase (hAPN, EC 3.4.11.2). Particulars: data from previous studies; cited from earlier work.
Data set [4] addresses T1, porcine kidney alanine aminopeptidase (pAPN, EC 3.4.11.2). As to conditions: data from previous studies; cited from earlier work.

The term melting point denotes the temperature, or range, at which the solid turns liquid. The Ki is a measure of affinity in units of concentration, obtained from inhibition or displacement. As usually defined, the Km is the concentration of substrate that gives half-maximal velocity.

Where two headings read alike, the source gives them in different places.

T2 sequence (P15144 whole entry): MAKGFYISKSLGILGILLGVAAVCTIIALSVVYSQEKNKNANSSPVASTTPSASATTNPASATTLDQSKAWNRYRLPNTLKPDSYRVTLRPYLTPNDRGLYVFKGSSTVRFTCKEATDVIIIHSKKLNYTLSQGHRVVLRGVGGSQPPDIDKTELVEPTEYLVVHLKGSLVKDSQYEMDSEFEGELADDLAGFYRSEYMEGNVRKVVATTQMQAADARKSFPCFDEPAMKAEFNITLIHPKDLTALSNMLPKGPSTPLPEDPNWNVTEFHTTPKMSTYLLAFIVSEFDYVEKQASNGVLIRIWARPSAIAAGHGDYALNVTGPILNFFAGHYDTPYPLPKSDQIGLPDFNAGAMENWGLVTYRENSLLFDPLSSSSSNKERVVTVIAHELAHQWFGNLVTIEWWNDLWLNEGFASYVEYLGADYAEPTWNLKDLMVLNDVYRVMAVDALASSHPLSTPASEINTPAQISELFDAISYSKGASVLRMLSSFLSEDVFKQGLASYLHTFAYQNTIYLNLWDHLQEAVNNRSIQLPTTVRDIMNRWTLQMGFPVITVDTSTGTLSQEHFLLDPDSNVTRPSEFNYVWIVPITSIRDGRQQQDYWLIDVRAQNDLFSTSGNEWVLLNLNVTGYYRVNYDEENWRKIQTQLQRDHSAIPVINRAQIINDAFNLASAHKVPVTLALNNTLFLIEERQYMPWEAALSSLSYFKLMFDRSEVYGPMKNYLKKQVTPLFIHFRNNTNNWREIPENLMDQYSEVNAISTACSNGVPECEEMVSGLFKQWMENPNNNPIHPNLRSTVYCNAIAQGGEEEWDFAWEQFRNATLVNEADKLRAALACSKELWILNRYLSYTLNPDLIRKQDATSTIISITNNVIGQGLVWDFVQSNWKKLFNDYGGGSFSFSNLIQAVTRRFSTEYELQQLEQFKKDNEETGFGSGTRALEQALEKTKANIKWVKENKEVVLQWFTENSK

For `NC(CCc1ccc(F)c(F)c1)P(=O)(O)O` (stereo not shown) [Compound 15f, 1-Amino-3-(3,4-Difluorophenyl)propylphosphonic Acid], the melting point lay in the range of 292 to 293 °C. Besides, in data set [1], the Ki was determined as 1.02 ± 0.3 µM. Moreover, the inhibition constant Ki in data set [2] worked out at 0.149 ± 0.011 µM.
For the compound `NC(Cc1ccc(Cl)c(F)c1)P(=O)(O)O` (stereo not shown) [Compound 17s], the figures for the inhibition constant Ki in data set [3] and in data set [4] were 1.01 ± 0.16 µM and 14.8 ± 0.9 µM, respectively.
With `NC(Cc1ccc(F)c(Cl)c1)P(=O)(O)O` (stereo not shown) [Compound 17t], the Ki in data set [3] was 0.542 ± 0.152 µM; in data set [4], 6.93 ± 0.78 µM.
`NC(CCc1ccc(F)cc1)P(=O)(O)O` (stereo not shown) [Compound 15d, 1-Amino-3-(4-Fluorophenyl)propylphosphonic Acid] gave a melting point of 303 to 305 °C. Besides, affinity in data set [1] was put at a Ki of 1.69 ± 0.81 µM. In addition, the Ki in data set [2] worked out at 0.249 ± 0.025 µM.
In the case of `Cc1cc(=O)oc2cc(NC(=O)[C@H](C)N)ccc12` [Ala-AMC, L-alanine-4-methylcoumaryl-7-amide, reference compound], the Michaelis constant (Km) in data set [1] (substrate constant, determined analogously to the literature [23], read-out: Km towards Ala-AMC, pAPN) is 90 µM; in data set [2] (substrate constant, determined analogously to the literature [23], read-out: Km towards Ala-AMC, hAPN), 73 µM.
Consider `NC(Cc1ccc(Cl)cc1F)P(=O)(O)O` (stereo not shown) [Compound 17o], for which the Ki in data set [3] was 17.8 ± 2.09 µM; in data set [4] it was 160 ± 11 µM.
Take `NC(Cc1cc(F)ccc1Br)P(=O)(O)O` (stereo not shown) [Compound 17b]: the Ki in data set [1] was found to be 379 ± 126 µM; in data set [2], 41.7 ± 7.4 µM.
The compound `NC(CCc1cccc(F)c1)P(=O)(O)O` (stereo not shown) [Compound 15c, 1-Amino-3-(3-Fluorophenyl)propylphosphonic Acid] returned a melting point of 292 to 294 °C. Besides, the Ki in data set [1] stood at 2.63 ± 0.18 µM. Further, the inhibitory constant (Ki) in data set [2] came out at 0.129 ± 0.025 µM. The “times better inhibitor than 15a” value in data set [2] (ratio of Ki values versus compound 15a, the text says both aminopeptidases, the factor matches hAPN) was 5.
Regarding `NC(Cc1ccc(F)c(Br)c1)P(=O)(O)O` (stereo not shown) [Compound 17c, 1-Amino-3-(3-Bromo-4-Fluorophenyl)ethylphosphonic Acid], the Ki in data set [1] amounted to 2.22 ± 0.14 µM; in data set [2], 0.248 ± 0.024 µM.
In the same order, the values of “1-Amino-3-(4-Bromo-2-Fluorophenyl)ethylphosphonic Acid [Compound 17d]” are 82.5 ± 2 µM and 7.36 ± 0.21 µM.
In the same order, the values of “1-Amino-3-(4-Bromo-3-Fluorophenyl)ethylphosphonic Acid [Compound 17e]” are 4.23 ± 0.44 µM and 0.67 ± 0.049 µM.
Compound `NC(CCc1ccccc1F)P(=O)(O)O` (stereo not shown) [Compound 15b, 1-Amino-3-(2-Fluorophenyl)propylphosphonic Acid] yielded a melting point of 292 to 294 °C. Besides, the inhibition constant Ki in data set [1] came out at 12.7 ± 0.8 µM. In data set [2], the Ki was 0.506 ± 0.038 µM.
Regarding “1-Amino-3-(2-Bromo-4-Fluorophenyl)ethylphosphonic Acid [Compound 17a]”, the Ki in data set [1] was determined as 70 ± 6.6 µM; in data set [2], 14 ± 0.4 µM.
In turn, `NC(CCc1ccc(C(F)(F)F)cc1)P(=O)(O)O` (stereo not shown) [Compound 15g, 1-Amino-3-(4-Trifluoromethylphenyl)propylphosphonic Acid] had a melting point of 295 to 296 °C. In data set [1], this compound yielded an inhibition constant Ki of 0.976 ± 0.099 µM. Moreover, the inhibition constant Ki in data set [2] worked out at 0.347 ± 0.062 µM.
In the same order, the values of `NC(CCc1ccccc1C(F)(F)F)P(=O)(O)O` (stereo not shown) [Compound 15h, 1-Amino-3-(2-Trifluoromethylphenyl)propylphosphonic Acid] are 244 to 246 °C, 7.49 ± 0.58 µM and 0.804 ± 0.122 µM.
In the same order, the values of `NC(CCc1ccc(F)cc1F)P(=O)(O)O` (stereo not shown) [Compound 15e, 1-Amino-3-(2,4-Difluorophenyl)propylphosphonic Acid] are 304 to 306 °C, 1.71 ± 0.46 µM and 0.661 ± 0.105 µM.

The values above are taken from paper PMC7565091, “Synthesis and Inhibitory Studies of Phosphonic Acid Analogues of Homophenylalanine and Phenylalanine towards Alanyl Aminopeptidases” (Biomolecules, 2020).
